Laboratory results from patent US20260250320A1, “LIPIDATED PEPTIDE INHIBITORS OF INTERLEUKIN-23 RECEPTOR” (Janssen Pharmaceutica NV, priority 2023, published 2026).
*1 amine or outer side, *2 acyl side, *3 side chain or, on linkers, in order; H or OH if unused. Where a SMILES comes first, the peptide text is derived from it. Bridges are numbered along the chain shown (N, C = ends). Side-chain parts run from the residue outwards. [ ]: non-standard residue; d: D form. The star is where a group is joined. ξ: configuration not given here. X14 = CC(=O)N(C)CCCC[C@H](CC(=O)C1(N*)CCOCC1)C(=O)N[C@@H](CC(N)=O)C(=O)N[C@@H](Cc1cccnc1)C(=O)N(C)CC(=O)N(C)C; X38 = O=C(O)CCCCCCCCCCCCCCCCC(=O)N[C@@H](CCC(=O)NCCOCCOCC(=O)NCCOCCCCC(=O)*)C(=O)O; X11 = CN(CC(N)=O)C(=O)[C@H](Cc1cccnc1)NC(O)[C@H](CC(N)=O)N*; Me3N+CH2CH2(OCH2CH2)4CO = C[N+](C)(C)CCOCCOCCOCCOCCC(=O)*; Me3N+(CH2)2O(CH2)2O(CH2)2CO = C[N+](C)(C)CCOCCOCCC(=O)*; X28 = CC(=O)[C@H](CCC(=O)*)NC(=O)CCCCCCCCCCCCCCCCC(=O)O; Trp(7-Me) = Cc1cccc2c(C[C@H](N)C(=O)O)c[nH]c12; C22 diacid = O=C(O)CCCCCCCCCCCCCCCCCCCCC(=O)*; C20 diacid = O=C(O)CCCCCCCCCCCCCCCCCCC(=O)*; C18 diacid = O=C(O)CCCCCCCCCCCCCCCCC(=O)*; X6 = CN(CC[C@H](N[*:1])C(=O)[*:2])[*:3]; γGlu = O=C(O)[C@H](CCC(=O)[*:2])N[*:1]; 2Nal = N[C@@H](Cc1ccc2ccccc2c1)C(=O)O; AEF = NCCOc1ccc(C[C@H](N)C(=O)O)cc1; PEG6 = NCCOCCOCCOCCOCCOCCOCCC(=O)O; X2 = C[N+](C)(C)C[C@@H](CC(=O)O)N*; ξAEF = NCCOc1ccc(CC(N)C(=O)O)cc1; 3Pal = N[C@@H](Cc1cccnc1)C(=O)O; Lys(Me) = CNCCCC[C@H](N)C(=O)O; NMeK = CN[C@@H](CCCCN)C(=O)O; Pen = CC(C)(S)[C@H](N)C(=O)O; Suc = O=C(CCC(=O)[*:2])[*:1]; Thp = NC1(C(=O)O)CCOCC1; X1 = C[N+](C)(C)CCCCC*; AEEA = NCCOCCOCC(=O)O; Sar = CNCC(=O)O

Legend:
IL-23R = molecular target: T1, IL-23R (Homo sapiens, UniProt Q5VWK5); test: IL23R Reporter Assay; assay type: cell-based; conditions: HEK293 cells containing IL-23R, IL-12Rβ1 and STAT-inducible firefly luciferase reporter; 10 ng/mL IL-23 (EC90); 5 h
T1 construct: HEK293 cells containing IL-23R, IL-12Rβ1 and a firefly luciferase reporter gene driven by a STAT-inducible promoter (Promega); host or cells: HEK293
T1 sequence (Q5VWK5 24-629): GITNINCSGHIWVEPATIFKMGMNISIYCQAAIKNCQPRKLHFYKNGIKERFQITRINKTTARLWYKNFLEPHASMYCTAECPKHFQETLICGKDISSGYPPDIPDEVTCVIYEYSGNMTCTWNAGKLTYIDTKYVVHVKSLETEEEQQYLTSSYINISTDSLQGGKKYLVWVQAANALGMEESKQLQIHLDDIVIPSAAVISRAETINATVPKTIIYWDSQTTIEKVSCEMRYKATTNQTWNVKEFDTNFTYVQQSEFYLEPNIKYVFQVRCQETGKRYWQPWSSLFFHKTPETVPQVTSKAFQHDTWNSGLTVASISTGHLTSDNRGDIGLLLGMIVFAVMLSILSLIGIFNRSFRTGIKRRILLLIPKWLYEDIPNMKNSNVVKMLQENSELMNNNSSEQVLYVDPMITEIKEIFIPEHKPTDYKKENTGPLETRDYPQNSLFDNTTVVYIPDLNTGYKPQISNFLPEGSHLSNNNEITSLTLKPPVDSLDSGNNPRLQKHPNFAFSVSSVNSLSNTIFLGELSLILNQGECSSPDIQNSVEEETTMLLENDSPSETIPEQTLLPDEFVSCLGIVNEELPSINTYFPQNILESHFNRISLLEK
Method in brief: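 IC50 values were fitted with a 4-parameter Hill equation to luciferase signal, scaled between IL-23-only wells (0% inhibition) and 30 μM reference inhibitor (100%). The readout was a STAT-inducible reporter in IL-23R/IL-12Rβ1 HEK293 cells, stimulated with added 10 ng/mL IL-23 (EC90) for 5 h at 37° C and developed with BioGlo.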

[1] = tested on: IL-23-stimulated phosphorylated STAT3 in peripheral blood mononuclear cells (PBMCs); test: PBMC pSTAT3 Assay; assay type: cell-based; conditions: PBMCs from healthy donors; 30 min preincubation with peptide; IL-23 5 ng/mL for 30 min; phospho-STAT3 by MSD
Method in brief: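 Phospho-STAT3 quantified by Meso Scale assay in lysates of PBMCs exposed to IL-23 (5 ng/mL, 30 min, 37 °C) after 30 min peptide pretreatment. Cells were cryopreserved donor PBMCs activated 4 days with anti-CD3 plus IL-1β (100 ng/mL) and starved ~4 h; IC50 reported.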

In the case of `CC(=O)NCCCC[C@@H]1NC(=O)[C@H](Cc2c[nH]c3c(C)cccc23)NC(=O)[C@H]([C@@H](C)O)NC(=O)[C@H](CC(N)=O)NC(=O)[C@@H](NC(=O)[C@@H](CCCNC(=N)N)NC(=O)COCCOCCNC(=O)COCCOCCNC(=O)CC[C@H](NC(=O)CCCCCCCCCCCCCCCCC(=O)O)C(=O)O)C(C)(C)SSC(C)(C)[C@@H](C(=O)N[C@@H](Cc2ccc(OCCN)cc2)C(=O)N[C@@H](Cc2ccc3ccccc3c2)C(=O)NC2(C(=O)N[C@@H](CCCCNC(=O)CCC(=O)N[C@H](CC(=O)O)C[N+](C)(C)C)C(=O)N[C@@H](CC(N)=O)C(O)N[C@@H](Cc3cccnc3)C(=O)N(C)CC(N)=O)CCOCC2)NC1=O` (stereo partly drawn) [compound 45, HOC18gEPEG2PEG2CO-r-Pen(3)-N-T-7MeW-K(Ac)-Pen(3)-AEF-2Nal-THP-K(d)-N-3Pya-Sar-CONH2] ({C18 diacid-γGlu-AEEA-AEEA}-[dR][Pen]NT[Trp(7-Me)]K(Ac)[Pen][AEF][2Nal][Thp]K([Suc-X2])-X11; disulfide 2-7), the IC50 (IL-23R) is reported as 0.05 to 0.5 µM and the IC50 [1] is reported as < 0.0005 µM.

In the case of `CC(=O)[C@H](CCC(=O)NCCOCCOCCOCCOCCOCCOCCC(=O)NCCCC[C@@H](C(N)=O)N(C)C(=O)[C@H](Cc1cccnc1)NC(=O)[C@H](CC(N)=O)NC(=O)[C@H](CCC(=O)O)NC(=O)C1(NC(=O)[C@H](Cc2ccc3ccccc3c2)NC(=O)C(Cc2ccc(OCCN)cc2)NC(=O)[C@H]2NC(=O)[C@H](CCN(C)C(=O)CCOCCOCCOCCOCC[N+](C)(C)C)NC(=O)[C@H](Cc3c[nH]c4c(C)cccc34)NC(=O)[C@H]([C@@H](C)O)NC(=O)[C@H](CC(=O)N(C)C)NC(=O)[C@@H](NC(=O)CCOCCOCCOCCOCC[N+](C)(C)C)C(C)(C)SSC2(C)C)CCOCC1)NC(=O)CCCCCCCCCCCCCCCCC(=O)O` (stereo partly drawn) [compound 91, HOC18gEPEG2PEG2COSP6-Pen(3)-N(N(Me)2)-T-7MeW-K(NMeAc)-Pen(3)-APEG3F-2Nal-THP-K(NMeAc)-N-3Pya-Sar-CON(Me)2] ({Me3N+CH2CH2(OCH2CH2)4CO}-[Pen]D(NMe2)T[Trp(7-Me)][X6](Me3N+CH2CH2(OCH2CH2)4CO)[Pen][ξAEF][2Nal][Thp]EN[3Pal][NMeK]([PEG6-X28])-NH2; disulfide 1-6), the IC50 (IL-23R) is reported as < 0.05 µM and the IC50 [1] is reported as < 0.0005 µM.

`CC(=O)N[C@@H](CCCCNC(=O)CCCCOCCNC(=O)COCCOCCNC(=O)CC[C@H](NC(=O)CCCCCCCCCCCCCCCCC(=O)O)C(=O)O)C(=O)N[C@@H]1C(=O)N[C@@H](CC(=O)N(C)C)C(=O)N[C@@H]([C@@H](C)O)C(=O)N[C@@H](Cc2c[nH]c3c(C)cccc23)C(=O)N[C@@H](CCCCN(C)C(C)=O)C(=O)N[C@H](C(=O)N[C@@H](Cc2ccc(OCCCCC[N+](C)(C)C)cc2)C(=O)N[C@@H](Cc2ccc3ccccc3c2)C(=O)NC2(C(=O)N[C@@H](CCCCN(C)C(C)=O)C(=O)N[C@@H](CC(N)=O)C(=O)N[C@@H](Cc3cccnc3)C(=O)N(C)CC(N)=O)CCOCC2)C(C)(C)SSC1(C)C` [compound 63, MeCO-K(PEG2PEG2gEC18OH)-Pen(3)-N(N(Me)2)-T-7MeW-K(NMeAc)-Pen(3)-TMAPF-2Nal-THP-K(NMeAc)-N-3Pya-Sar-CONH2] (Ac-K(X38)[Pen]D(NMe2)T[Trp(7-Me)][Lys(Me)](Ac)[Pen]Y(X1)[2Nal][Thp][Lys(Me)](Ac)N[3Pal][Sar]-NH2; disulfide 2-7) was tested, and the IC50 (IL-23R) was ≥ 0.5 µM and the IC50 [1] was ≥ 0.005 µM.

In the case of `CC(=O)N(C)CCCC[C@H](CC(=O)C1(NC(=O)[C@H](Cc2ccc3ccccc3c2)NC(=O)[C@H](Cc2ccc(OCCCCC[N+](C)(C)C)cc2)NC(=O)[C@H]2NC(=O)[C@H](CCCCN(C)C(C)=O)NC(=O)[C@H](Cc3c[nH]c4c(C)cccc34)NC(=O)[C@H]([C@@H](C)O)NC(=O)[C@H](CC(=O)N(C)C)NC(=O)[C@@H](NC(=O)COCCOCCNC(=O)COCCOCCNC(=O)CC[C@H](NC(=O)CCCCCCCCCCCCCCCCCCCCC(=O)O)C(=O)O)C(C)(C)SSC2(C)C)CCOCC1)C(=O)N[C@@H](CC(N)=O)C(=O)N[C@@H](Cc1cccnc1)C(=O)N(C)CC(=O)N(C)C` [compound 119, HOC20gEPEG2PEG2CO-Pen(3)-N(N(Me)2)-T-7MeW-K(NMeAc)-Pen(3)-TMAPF-2Nal-THP-K(NMeAc)-N-3Pya-Sar-CON(Me)2] ({C22 diacid-γGlu-AEEA-AEEA}-[Pen]D(NMe2)T[Trp(7-Me)][Lys(Me)](Ac)[Pen]Y(X1)[2Nal]-X14; disulfide 1-6), the IC50 (IL-23R) is reported as < 0.05 µM and the IC50 [1] is reported as < 0.0005 µM.

With `CC(=O)N(C)CCCC[C@@H]1NC(=O)[C@H](Cc2c[nH]c3c(C)cccc23)NC(=O)[C@H]([C@@H](C)O)NC(=O)[C@H](CCCCNC(=O)COCCOCCNC(=O)COCCOCCNC(=O)CC[C@H](NC(=O)CCCCCCCCCCCCCCCCCCC(=O)O)C(=O)O)NC(=O)[C@@H](NC(=O)CCOCCOCC[N+](C)(C)C)C(C)(C)SSC(C)(C)[C@@H](C(=O)N[C@@H](Cc2ccc(OCCCCC[N+](C)(C)C)cc2)C(=O)N[C@@H](Cc2ccc3ccccc3c2)C(=O)NC2(C(=O)N[C@@H](CCCCN(C)C(C)=O)C(=O)N[C@@H](CC(N)=O)C(=O)N[C@@H](Cc3cccnc3)C(=O)N(C)CC(=O)N(C)C)CCOCC2)NC1=O` [compound 128, cPEG3aCO-Pen(3)-K(PEG2PEG2gEC20OH)-T-7MeW-K(NMeAc)-Pen(3)-TMAPF-2Nal-THP-K(NMeAc)-N-3Pya-Sar-CON(Me)2] ({Me3N+(CH2)2O(CH2)2O(CH2)2CO}-[Pen]K([AEEA-AEEA-γGlu-C20 diacid])T[Trp(7-Me)][Lys(Me)](Ac)[Pen]Y(X1)[2Nal][Thp][Lys(Me)](Ac)N[3Pal][Sar]-NMe2; disulfide 1-6) the IC50 (IL-23R) was 0.05 to 0.5 µM and the IC50 [1] was 0.0005 to 0.005 µM.

With `CC(=O)NCCCC[C@@H]1NC(=O)[C@H](Cc2c[nH]c3c(C)cccc23)NC(=O)[C@H]([C@@H](C)O)NC(=O)[C@H](CCCCNC(=O)COCCOCCNC(=O)COCCOCCNC(=O)CC[C@H](NC(=O)CCCCCCCCCCCCCCCCC(=O)O)C(=O)O)NC(=O)[C@@H](NC(=O)[C@@H](CCCNC(=N)N)NC(C)=O)C(C)(C)SSC(C)(C)[C@@H](C(=O)N[C@@H](Cc2ccc(OCCCCC[N+](C)(C)C)cc2)C(=O)N[C@@H](Cc2ccc3ccccc3c2)C(=O)NC2(C(=O)N[C@@H](CCC(=O)O)C(=O)N[C@@H](CC(N)=O)C(=O)N[C@@H](Cc3cccnc3)C(=O)N(C)CC(N)=O)CCOCC2)NC1=O` [compound 75, MeCO-r-Pen(3)-K(PEG2PEG2gEC18OH)-T-7MeW-K(Ac)-Pen(3)-TMAPF-2Nal-THP-E-N-3Pya-Sar-CONH2] (Ac-[dR][Pen]K([AEEA-AEEA-γGlu-C18 diacid])T[Trp(7-Me)]K(Ac)[Pen]Y(X1)[2Nal][Thp]EN[3Pal][Sar]-NH2; disulfide 2-7) the IC50 (IL-23R) was < 0.05 µM and the IC50 [1] was < 0.0005 µM.

`CC(=O)NCCCC[C@@H]1NC(=O)[C@H](Cc2c[nH]c3c(C)cccc23)NC(=O)[C@H]([C@@H](C)O)NC(=O)[C@H](CC(N)=O)NC(=O)[C@@H](NC(=O)[C@@H](CCCNC(=N)N)NC(=O)CCC(=O)N[C@H](CC(=O)O)C[N+](C)(C)C)C(C)(C)SSC(C)(C)[C@@H](C(=O)N[C@@H](Cc2ccc(OCCN)cc2)C(=O)N[C@@H](Cc2ccc3ccccc3c2)C(=O)NC2(C(=O)N[C@@H](CCC(=O)O)C(=O)N[C@@H](CC(N)=O)C(=O)N[C@@H](Cc3cccnc3)C(=O)N(C)[C@@H](CCCCNC(=O)COCCOCCNC(=O)COCCOCCNC(=O)CC[C@H](NC(=O)CCCCCCCCCCCCCCCCC(=O)O)C(=O)O)C(N)=O)CCOCC2)NC1=O` [compound 31, succiniccarn-r-Pen(3)-N-T-7MeW-K(Ac)-Pen(3)-AEF-2Nal-THP-E-N-3Pya-NMeK(PEG2PEG2gEC18OH)-CONH2] ({X2-Suc}-[dR][Pen]NT[Trp(7-Me)]K(Ac)[Pen][AEF][2Nal][Thp]EN[3Pal][NMeK]([AEEA-AEEA-γGlu-C18 diacid])-NH2; disulfide 2-7) was tested, and the IC50 (IL-23R) was 0.05 to 0.5 µM and the IC50 [1] was < 0.0005 µM.
